Laboratory results taken from BindingDB's records for doi:10.1021/jm701164t (Irbm-Mrl, 2008).

Biological target: Gag-Pol polyprotein (Human immunodeficiency virus type 1 group M subtype B (isolate HXB2), UniProt P04585)
Assay: Microtiter Plate Assay for Strand Transfer
Settings: pH 7.8; 37 °C
Method: The microtiter plate assay for stand transfer was performed with an immobilized donor substrate and a target substrate biotinylated at the 3-prime end of each DNA strand. Integrase was first assembled with immobilized LTR oligonucleotides for 30 min. Inhibitors were added after assembly and washings. For the strand transfer reaction, it was initiated with the addition of the biotinylated target substrate. Strand transfer reaction mixtures were incubated for additional 30 min, and the strand transfer products were detected by using alkaline phosphatase-conjugated avidin (Boehringer Mannheim, Indianapolis, Ind.).

**Q.** With `CC(c1nc(C(=O)NCc2ccc(F)cc2)c(O)c(=O)[nH]1)N(C)C` (stereo unspecified) [JMC496646 Compound 11] as the molecule, how does the IC50 read?
**A.** Its IC50 is 100 nM.
